According to patent publication US20070128217A1 (priority 2003, published 2007):

Key:
[1] = test system: rabbit serum obtained by immunizing a rabbit with the SARS-CoV strain Frankfurt 1; assay type: binding; design: Binding of a rabbit serum to linear peptides / Binding of a rabbit serum to looped peptides / Rabbit serum linear peptides / Rabbit serum looped peptides / Binding of a rabbit serum to linear peptides of protein N of SARS-CoV Urbani (Rabbit serum linear peptides) / Binding of a rabbit serum to looped/cyclic peptides of protein N of SARS-CoV Urbani (Rabbit serum looped peptides): unit not given here
[2] = test system: antibodies in sera from SARS patients (sera 1a, 1b, 2, 6, 37, 62, London, SARS-yellow, SARS-green); assay type: binding, human; design: Binding of serum 6 to linear peptides of protein X1 of SARS-CoV Urbani / Binding of serum 37 to linear peptides of protein X1 of SARS-CoV Urbani / Binding of serum 6 to looped/cyclic peptide (PEPSCAN-ELISA) / Binding of serum 37 to looped/cyclic peptide (PEPSCAN-ELISA) / Binding of serum 37 to looped/cyclic peptides of protein X1 of SARS-CoV Urbani / Binding of serum 6 to linear peptides of protein X2 / Binding of serum 37 to linear peptides of protein X2 / Binding of serum 37 to looped/cyclic peptides of protein X2 of SARS-CoV Urbani / Binding of serum 6 to linear peptides of protein M of SARS-CoV Urbani / Binding of serum 37 to linear peptides of protein M of SARS-CoV Urbani / Binding of serum 6 to looped/cyclic peptides of protein M of SARS-CoV Urbani / Binding of serum 37 to looped/cyclic peptides of protein M of SARS-CoV Urbani / Binding of serum 6 to linear peptides of protein X3 of SARS-CoV Urbani / Binding of serum 37 to linear peptides of protein X3 of SARS-CoV Urbani / Binding of serum 37 to looped/cyclic peptides of protein X3 of SARS-CoV Urbani / Binding of serum 6 to linear peptides of protein X4 of SARS-CoV Urbani / Binding of serum 37 to linear peptides of protein X4 of SARS-CoV Urbani / Binding of serum 37 to looped/cyclic peptides of protein X4 of SARS-CoV Urbani / Binding of serum 6 to linear peptides of protein X5 of SARS-CoV Urbani / Binding of serum 37 to linear peptides of protein X5 of SARS-CoV Urbani / Binding of serum 37 to looped/cyclic peptides of protein X5 of SARS-CoV Urbani / Binding of serum 6 to linear peptides of protein N of SARS-CoV Urbani / Binding of serum 37 to linear peptides of protein N of SARS-CoV Urbani / Binding of serum 6 to linear peptide (PEPSCAN-ELISA) / Binding of serum 1a to looped/cyclic peptides of protein N of SARS-CoV Urbani / Binding of serum 1b to looped/cyclic peptides of protein N of SARS-CoV Urbani / Binding of serum 2 to looped/cyclic peptides of protein N of SARS-CoV Urbani / Binding of serum 6 to looped/cyclic peptides of protein N of SARS-CoV Urbani / Binding of serum 37 to looped/cyclic peptides of protein N of SARS-CoV Urbani / Binding of serum 62 to looped/cyclic peptides of protein N of SARS-CoV Urbani / Binding of serum London to looped/cyclic peptides of protein N of SARS-CoV Urbani / Binding of serum SARS-green to looped/cyclic peptides of protein N of SARS-CoV Urbani: unit not given here
[3] = test system: control sera (pooled serum of ten healthy LUMC hospital workers; commercial negative donor pooled serum from the Dutch bloodbank); assay type: binding, human; design: Binding of Control serum LUMC to linear peptides / Binding of Control serum Blood-bank to linear peptides / Binding of Control serum LUMC to looped peptides / Binding of Control Serum Blood-Bank to Looped peptides / Binding of Control serum LUMC to linear peptides of the protein M of SARS-CoV Urbani / Binding of Control serum Blood-bank to linear peptides of the protein M of SARS-CoV Urbani / Binding of Control serum LUMC to looped peptides of the protein M of SARS-CoV Urbani / Binding of Control Serum Blood-Bank to Looped peptides of the protein M of SARS-CoV Urbani: unit not given here

TYSTAWLCALGKVLP
Rabbit serum linear peptides [1]: 0.6 | Rabbit serum looped peptides [1]: 0.7 | Binding of serum 1a to linear peptides of protein X5 of SARS-CoV Urbani [2]: 0.8 | Binding of serum 1a to looped/cyclic peptides of protein X5 of SARS-CoV Urbani [2]: 0.5 | Binding of serum 1b to linear peptides of protein X5 of SARS-CoV Urbani [2]: 0.6 | Binding of serum 1b to looped/cyclic peptides of protein X5 of SARS-CoV Urbani [2]: 0.3 | Binding of serum 2 to linear peptides of protein X5 of SARS-CoV Urbani [2]: 0.9 | Binding of serum 2 to looped/cyclic peptides of protein X5 of SARS-CoV Urbani [2]: 1.1 | Binding of serum 6 to linear peptides of protein X5 of SARS-CoV Urbani [2]: 0.6 | Binding of serum 6 to looped/cyclic peptides of protein X5 of SARS-CoV Urbani [2]: 0.4 | Binding of serum 37 to linear peptides of protein X5 of SARS-CoV Urbani [2]: 0.7 | Binding of serum 37 to looped/cyclic peptides of protein X5 of SARS-CoV Urbani [2]: 0.6 | Binding of serum 62 to linear peptides of protein X5 of SARS-CoV Urbani [2]: 0.8 | Binding of serum 62 to looped/cyclic peptides of protein X5 of SARS-CoV Urbani [2]: 0.8 | Binding of serum London to linear peptides of protein X5 of SARS-CoV Urbani [2]: 0.7 | Binding of serum London to looped/cyclic peptides of protein X5 of SARS-CoV Urbani [2]: 0.2 | Binding of serum SARS-green to linear peptides of protein X5 of SARS-CoV Urbani [2]: 0.7 | Binding of serum SARS-green to looped/cyclic peptides of protein X5 of SARS-CoV Urbani [2]: 0.3 | Binding of serum SARS-yellow to linear peptides of protein X5 of SARS-CoV Urbani [2]: 0.4 | Binding of serum SARS-yellow to looped/cyclic peptides of protein X5 of SARS-CoV Urbani [2]: 0.5 | Binding of Control Serum Blood-Bank to Looped peptides [3]: 0.5 | Binding of Control serum Blood-bank to linear peptides [3]: 0.9 | Binding of Control serum LUMC to linear peptides [3]: 0.5 | Binding of Control serum LUMC to looped peptides [3]: 0.6

QFMMSRRRLLACLCK
Binding of a rabbit serum to linear peptides [1]: 0.5 | Binding of a rabbit serum to looped peptides [1]: 1.9 | Binding of serum 1a to linear peptides of protein X2 [2]: 0.7 | Binding of serum 1a to looped/cyclic peptides of protein X2 of SARS-CoV Urbani [2]: 0.4 | Binding of serum 1b to linear peptides of protein X2 [2]: 0.5 | Binding of serum 1b to looped/cyclic peptides of protein X2 of SARS-CoV Urbani [2]: 0.5 | Binding of serum 2 to linear peptides of protein X2 [2]: 0.5 | Binding of serum 2 to looped/cyclic peptides of protein X2 of SARS-CoV Urbani [2]: 0.5 | Binding of serum 6 to linear peptides of protein X2 [2]: 0.6 | Binding of serum 6 to looped/cyclic peptides of protein X2 of SARS-CoV Urbani [2]: 0.1 | Binding of serum 37 to linear peptides of protein X2 [2]: 0.5 | Binding of serum 37 to looped/cyclic peptides of protein X2 of SARS-CoV Urbani [2]: 0.4 | Binding of serum 62 to linear peptides of protein X2 [2]: 0.6 | Binding of serum 62 to looped/cyclic peptides of protein X2 of SARS-CoV Urbani [2]: 0.5 | Binding of serum London to linear peptides of protein X2 [2]: 0.6 | Binding of serum London to looped/cyclic peptides of protein X2 of SARS-CoV Urbani [2]: 0.2 | Binding of serum SARS-green to linear peptides of protein X2 [2]: 0.4 | Binding of serum SARS-green to looped/cyclic peptides of protein X2 of SARS-CoV Urbani [2]: 0.4 | Binding of serum SARS-yellow to linear peptides of protein X2 [2]: 0.4 | Binding of serum SARS-yellow to looped/cyclic peptides of protein X2 of SARS-CoV Urbani [2]: 0.3 | Binding of Control Serum Blood-Bank to Looped peptides [3]: 0.3 | Binding of Control serum Blood-bank to linear peptides [3]: 0.7 | Binding of Control serum LUMC to linear peptides [3]: 0.5 | Binding of Control serum LUMC to looped peptides [3]: 0.4

QRVGTDSGFAAYNRY
Rabbit serum linear peptides [1]: 0.4 | Rabbit serum looped peptides [1]: 0.0 | Binding of serum 1a to linear peptides of protein M of SARS-CoV Urbani [2]: 0.7 | Binding of serum 1a to looped/cyclic peptides of protein M of SARS-CoV Urbani [2]: 0.6 | Binding of serum 1b to linear peptides of protein M of SARS-CoV Urbani [2]: 0.5 | Binding of serum 1b to looped/cyclic peptides of protein M of SARS-CoV Urbani [2]: 0.5 | Binding of serum 2 to linear peptides of protein M of SARS-CoV Urbani [2]: 0.5 | Binding of serum 2 to looped/cyclic peptides of protein M of SARS-CoV Urbani [2]: 0.5 | Binding of serum 6 to linear peptides of protein M of SARS-CoV Urbani [2]: 0.3 | Binding of serum 6 to looped/cyclic peptides of protein M of SARS-CoV Urbani [2]: 0.6 | Binding of serum 37 to linear peptides of protein M of SARS-CoV Urbani [2]: 0.7 | Binding of serum 37 to looped/cyclic peptides of protein M of SARS-CoV Urbani [2]: 0.6 | Binding of serum 62 to linear peptides of protein M of SARS-CoV Urbani [2]: 0.7 | Binding of serum 62 to looped/cyclic peptides of protein M of SARS-CoV Urbani [2]: 0.5 | Binding of serum London to linear peptides of protein M of SARS-CoV Urbani [2]: 0.3 | Binding of serum London to looped/cyclic peptides of protein M of SARS-CoV Urbani [2]: 0.2 | Binding of serum SARS-green to linear peptides of protein M of SARS-CoV Urbani [2]: 0.3 | Binding of serum SARS-green to looped/cyclic peptides of protein M of SARS-CoV Urbani [2]: 0.3 | Binding of serum SARS-yellow to linear peptides of protein M of SARS-CoV Urbani [2]: 0.1 | Binding of serum SARS-yellow to looped/cyclic peptides of protein M of SARS-CoV Urbani [2]: 0.6 | Binding of Control Serum Blood-Bank to Looped peptides of the protein M of SARS-CoV Urbani [3]: 0.7 | Binding of Control serum Blood-bank to linear peptides of the protein M of SARS-CoV Urbani [3]: 0.6 | Binding of Control serum LUMC to linear peptides of the protein M of SARS-CoV Urbani [3]: 0.3 | Binding of Control serum LUMC to looped peptides of the protein M of SARS-CoV Urbani [3]: 0.8
